According to US9340590B2 (priority 2011, dated 2016):
Positions of bridges follow the written chain, without caps; N, C: chain ends. Residues, ends and D or L forms follow the SMILES beside them.

What was measured:
Assay in all cases: cell-based
hNav1.7 = hNav1.7 (Homo sapiens, UniProt Q15858); assay type: cell-based; settings: IonWorks Quattro; clamped to −110 mV, depolarized to −10 mV, 5 min after compound; n=2; read-out: IWQ Use Nav1.7
hNav1.5 = hNav1.5 (Homo sapiens, UniProt Q14524); settings: IonWorks Quattro; clamped to −110 mV, depolarized to −10 mV, 5 min after compound; n=2; read-out: IWQ Use Nav1.5
hNav1.3 = hNav1.3 (Homo sapiens, UniProt Q9NY46); settings: IonWorks Quattro; clamped to −110 mV, depolarized to −10 mV, 5 min after compound; n=2; read-out: IWQ Use Nav1.3
Sequence of hNav1.3 (Q9NY46 whole entry, looked up): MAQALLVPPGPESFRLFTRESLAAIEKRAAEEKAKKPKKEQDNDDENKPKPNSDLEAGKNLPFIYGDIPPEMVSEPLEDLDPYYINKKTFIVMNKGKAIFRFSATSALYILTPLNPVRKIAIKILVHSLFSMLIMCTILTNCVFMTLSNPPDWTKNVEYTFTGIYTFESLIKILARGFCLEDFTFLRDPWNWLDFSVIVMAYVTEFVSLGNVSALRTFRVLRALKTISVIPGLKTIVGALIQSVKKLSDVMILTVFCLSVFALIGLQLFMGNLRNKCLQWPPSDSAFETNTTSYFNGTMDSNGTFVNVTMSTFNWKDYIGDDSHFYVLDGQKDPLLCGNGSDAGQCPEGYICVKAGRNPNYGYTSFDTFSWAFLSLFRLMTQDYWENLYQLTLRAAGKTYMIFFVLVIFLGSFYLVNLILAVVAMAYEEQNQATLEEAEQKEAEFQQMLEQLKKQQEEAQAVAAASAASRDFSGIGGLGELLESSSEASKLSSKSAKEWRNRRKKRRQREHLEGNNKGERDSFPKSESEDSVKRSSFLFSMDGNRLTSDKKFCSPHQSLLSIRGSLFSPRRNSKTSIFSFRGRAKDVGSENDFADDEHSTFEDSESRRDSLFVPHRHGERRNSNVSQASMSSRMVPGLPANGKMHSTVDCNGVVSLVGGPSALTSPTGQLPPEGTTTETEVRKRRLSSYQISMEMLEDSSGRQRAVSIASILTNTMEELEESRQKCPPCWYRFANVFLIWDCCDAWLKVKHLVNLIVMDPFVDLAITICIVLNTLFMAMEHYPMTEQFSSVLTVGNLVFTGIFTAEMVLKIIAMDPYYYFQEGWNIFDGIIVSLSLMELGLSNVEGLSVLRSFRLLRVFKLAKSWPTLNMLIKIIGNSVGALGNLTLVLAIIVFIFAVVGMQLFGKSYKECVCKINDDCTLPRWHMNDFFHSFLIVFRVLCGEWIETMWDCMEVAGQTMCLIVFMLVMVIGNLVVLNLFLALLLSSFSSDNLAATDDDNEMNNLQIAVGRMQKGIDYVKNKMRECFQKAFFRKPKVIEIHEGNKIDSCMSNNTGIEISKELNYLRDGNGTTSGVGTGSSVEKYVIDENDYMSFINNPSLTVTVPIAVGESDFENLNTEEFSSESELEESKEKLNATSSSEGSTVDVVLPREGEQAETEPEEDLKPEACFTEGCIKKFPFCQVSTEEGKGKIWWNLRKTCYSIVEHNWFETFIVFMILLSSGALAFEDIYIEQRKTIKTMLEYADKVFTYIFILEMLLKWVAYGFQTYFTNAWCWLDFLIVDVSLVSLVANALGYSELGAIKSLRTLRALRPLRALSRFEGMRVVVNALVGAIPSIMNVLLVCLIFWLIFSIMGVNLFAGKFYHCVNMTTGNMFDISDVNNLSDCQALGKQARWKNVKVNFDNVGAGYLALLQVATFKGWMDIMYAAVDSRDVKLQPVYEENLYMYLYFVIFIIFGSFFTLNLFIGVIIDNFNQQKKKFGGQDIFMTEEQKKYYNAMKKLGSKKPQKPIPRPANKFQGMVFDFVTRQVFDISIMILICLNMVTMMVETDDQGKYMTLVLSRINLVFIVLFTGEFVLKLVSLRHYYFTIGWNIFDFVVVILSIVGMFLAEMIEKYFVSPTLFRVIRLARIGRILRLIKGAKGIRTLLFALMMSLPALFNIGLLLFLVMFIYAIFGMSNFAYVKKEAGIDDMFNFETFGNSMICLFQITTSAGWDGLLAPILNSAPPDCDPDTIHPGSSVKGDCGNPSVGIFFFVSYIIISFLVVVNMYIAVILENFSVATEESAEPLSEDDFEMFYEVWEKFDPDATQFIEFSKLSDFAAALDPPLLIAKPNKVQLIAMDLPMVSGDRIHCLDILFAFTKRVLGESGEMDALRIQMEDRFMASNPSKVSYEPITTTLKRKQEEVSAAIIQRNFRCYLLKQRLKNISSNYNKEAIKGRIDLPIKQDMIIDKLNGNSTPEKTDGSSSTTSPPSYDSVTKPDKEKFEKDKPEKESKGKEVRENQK

Sequence of hNav1.7 (Q15858 whole entry, looked up): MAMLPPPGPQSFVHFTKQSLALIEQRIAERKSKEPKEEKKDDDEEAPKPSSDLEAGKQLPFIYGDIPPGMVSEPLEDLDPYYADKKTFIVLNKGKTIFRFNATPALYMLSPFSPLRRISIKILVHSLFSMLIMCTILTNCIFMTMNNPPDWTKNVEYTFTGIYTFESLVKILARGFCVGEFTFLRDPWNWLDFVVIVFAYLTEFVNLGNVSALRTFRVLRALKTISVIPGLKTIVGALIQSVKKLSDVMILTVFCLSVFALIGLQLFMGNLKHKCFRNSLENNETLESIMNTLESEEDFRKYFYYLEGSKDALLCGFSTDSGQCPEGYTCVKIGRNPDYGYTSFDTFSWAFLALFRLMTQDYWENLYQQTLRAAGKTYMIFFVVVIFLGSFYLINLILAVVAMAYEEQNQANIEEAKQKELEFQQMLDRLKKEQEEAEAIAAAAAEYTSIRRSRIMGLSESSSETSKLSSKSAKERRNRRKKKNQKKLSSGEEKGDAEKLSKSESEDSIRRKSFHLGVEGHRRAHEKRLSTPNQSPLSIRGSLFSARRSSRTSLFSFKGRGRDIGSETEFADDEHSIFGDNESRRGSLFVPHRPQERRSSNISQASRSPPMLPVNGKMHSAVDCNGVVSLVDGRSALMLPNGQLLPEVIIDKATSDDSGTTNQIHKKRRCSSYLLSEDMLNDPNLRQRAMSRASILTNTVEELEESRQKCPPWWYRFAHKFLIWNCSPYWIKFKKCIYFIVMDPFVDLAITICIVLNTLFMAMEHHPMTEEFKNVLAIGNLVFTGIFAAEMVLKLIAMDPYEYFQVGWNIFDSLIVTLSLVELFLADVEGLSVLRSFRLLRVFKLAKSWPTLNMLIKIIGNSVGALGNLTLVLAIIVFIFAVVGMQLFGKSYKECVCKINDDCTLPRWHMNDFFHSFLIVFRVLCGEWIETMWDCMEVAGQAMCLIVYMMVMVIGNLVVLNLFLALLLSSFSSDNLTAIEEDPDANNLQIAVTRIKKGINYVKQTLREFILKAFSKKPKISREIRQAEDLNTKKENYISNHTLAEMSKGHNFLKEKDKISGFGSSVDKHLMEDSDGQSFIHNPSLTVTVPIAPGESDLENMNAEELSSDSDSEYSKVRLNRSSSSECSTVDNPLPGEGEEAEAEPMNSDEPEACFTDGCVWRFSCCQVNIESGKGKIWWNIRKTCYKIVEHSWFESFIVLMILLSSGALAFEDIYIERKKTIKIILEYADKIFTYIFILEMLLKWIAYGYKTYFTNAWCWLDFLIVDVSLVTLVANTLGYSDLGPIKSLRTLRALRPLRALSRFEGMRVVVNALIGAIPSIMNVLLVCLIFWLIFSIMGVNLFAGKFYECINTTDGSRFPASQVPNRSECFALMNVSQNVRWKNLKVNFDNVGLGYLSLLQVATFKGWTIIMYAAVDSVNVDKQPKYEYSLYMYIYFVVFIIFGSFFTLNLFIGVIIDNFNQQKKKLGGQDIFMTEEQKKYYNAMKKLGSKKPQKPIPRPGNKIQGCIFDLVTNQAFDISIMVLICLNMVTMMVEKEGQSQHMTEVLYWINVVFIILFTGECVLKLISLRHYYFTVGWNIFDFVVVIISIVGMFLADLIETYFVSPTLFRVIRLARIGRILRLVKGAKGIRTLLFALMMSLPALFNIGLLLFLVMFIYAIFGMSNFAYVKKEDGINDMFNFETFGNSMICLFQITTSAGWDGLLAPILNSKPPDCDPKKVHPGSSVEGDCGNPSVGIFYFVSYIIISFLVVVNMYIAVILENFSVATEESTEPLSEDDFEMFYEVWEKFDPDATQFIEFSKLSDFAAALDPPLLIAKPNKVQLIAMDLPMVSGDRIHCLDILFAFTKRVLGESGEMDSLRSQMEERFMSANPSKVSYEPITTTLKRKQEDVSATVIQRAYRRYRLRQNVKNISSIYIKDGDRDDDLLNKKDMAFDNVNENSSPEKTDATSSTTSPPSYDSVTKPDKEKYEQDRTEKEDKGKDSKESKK

## CC[C@H](C)[C@@H]1NC(=O)[C@@H]2CSSC[C@@H]3NC(=O)[C@H](C(C)C)NC(=O)[C@H](CC(C)C)NC(=O)[C@H](CC(N)=O)NC(=O)[C@@H]4CCCN4C(=O)[C@H](CCCNC(=N)N)NC(=O)[C@H](CSSC[C@H](NC(=O)[C@@H](N)CC(=O)O)C(=O)N[C@@H](CC(C)C)C(=O)NCC(=O)N[C@@H](CCSC)C(=O)N[C@@H](CCSC)C(=O)N[C@@H](CCCNC(=N)N)C(=O)N[C@@H](CCCCN)C(=O)N2)NC(=O)[C@H](CSSC[C@@H](C(=O)N[C@@H](CCCCN)C(=O)N[C@@H](Cc2ccc(O)cc2)C(=O)N[C@H](C(=O)N[C@@H](Cc2ccccc2)C(N)=O)C(C)C)NC(=O)[C@H](Cc2c[nH]c4ccccc24)NC(=O)[C@H](CCCCN)NC(=O)[C@H](Cc2cnc[nH]2)NC(=O)[C@H]([C@@H](C)O)NC(=O)[C@H](CCCNC(=N)N)NC(=O)[C@H](CO)NC3=O)NC(=O)[C@H](CCCCN)NC(=O)[C@H](CC(=O)O)NC(=O)[C@H](CC(N)=O)NC(=O)[C@H](CC(=O)O)NC(=O)[C@@H]2CCCN2C1=O [SEQ ID NO: 268] (H-DCLGMMRKCIPDNDKCCRPNLVCSRTHKWCKYVF-NH2; disulfide 2-17, 9-23, 16-30)
hNav1.7
  IC50: 0.1 µM
hNav1.5
  IC50: 12.8 µM
hNav1.3
  IC50: 0.24 µM

## CC[C@H](C)[C@@H]1NC(=O)[C@@H]2CSSC[C@@H]3NC(=O)[C@H](C(C)C)NC(=O)[C@H](CC(C)C)NC(=O)[C@H](CC(N)=O)NC(=O)[C@@H]4CCCN4C(=O)[C@H](CCCNC(=N)N)NC(=O)[C@H](CSSC[C@H](NC(=O)[C@@H](N)CC(=O)O)C(=O)N[C@@H](CC(C)C)C(=O)NCC(=O)N4CCC[C@H]4C(=O)N[C@@H](CCSC)C(=O)N[C@@H](CCCNC(=N)N)C(=O)N[C@@H](CCCCN)C(=O)N2)NC(=O)[C@H](CSSC[C@@H](C(=O)N[C@@H](CCCCN)C(=O)N[C@@H](Cc2ccc(O)cc2)C(=O)N[C@H](C(=O)N[C@@H](Cc2ccccc2)C(N)=O)C(C)C)NC(=O)[C@H](Cc2c[nH]c4ccccc24)NC(=O)[C@H](CCCCN)NC(=O)[C@H](Cc2c[nH]cn2)NC(=O)[C@H]([C@@H](C)O)NC(=O)[C@H](CCCNC(=N)N)NC(=O)[C@H](CO)NC3=O)NC(=O)[C@H](CCCCN)NC(=O)[C@H](CC(=O)O)NC(=O)[C@H](CC(N)=O)NC(=O)[C@H](CC(=O)O)NC(=O)[C@@H]2CCCN2C1=O [SEQ ID NO: 269] (H-DCLGPMRKCIPDNDKCCRPNLVCSRTHKWCKYVF-NH2; disulfide 2-17, 9-23, 16-30)
hNav1.7
  IC50: 1.17 µM
hNav1.5
  IC50: 6.61 µM
hNav1.3
  IC50: 1.73 µM

## CC[C@H](C)[C@@H]1NC(=O)[C@@H]2CSSC[C@@H]3NC(=O)[C@H](C(C)C)NC(=O)[C@H](CC(C)C)NC(=O)[C@H](CC(N)=O)NC(=O)[C@@H]4CCCN4C(=O)[C@H](CCCNC(=N)N)NC(=O)[C@H](CSSC[C@H](NC(=O)[C@@H](N)CC(=O)O)C(=O)N[C@@H](CC(C)C)C(=O)NCC(=O)N[C@@H]([C@@H](C)O)C(=O)N[C@@H](CCSC)C(=O)N[C@@H](CCCNC(=N)N)C(=O)N[C@@H](CCCCN)C(=O)N2)NC(=O)[C@H](CSSC[C@@H](C(=O)N[C@@H](CCCCN)C(=O)N[C@@H](Cc2ccc(O)cc2)C(=O)N[C@H](C(=O)N[C@@H](Cc2ccccc2)C(N)=O)C(C)C)NC(=O)[C@H](Cc2c[nH]c4ccccc24)NC(=O)[C@H](CCCCN)NC(=O)[C@H](Cc2c[nH]cn2)NC(=O)[C@H]([C@@H](C)O)NC(=O)[C@H](CCCNC(=N)N)NC(=O)[C@H](CO)NC3=O)NC(=O)[C@H](CCCCN)NC(=O)[C@H](CC(=O)O)NC(=O)[C@H](CC(N)=O)NC(=O)[C@H](CC(=O)O)NC(=O)[C@@H]2CCCN2C1=O [SEQ ID NO: 270] (H-DCLGTMRKCIPDNDKCCRPNLVCSRTHKWCKYVF-NH2; disulfide 2-17, 9-23, 16-30)
hNav1.7
  IC50: 1.22 µM
hNav1.5
  IC50: 15.2 µM
hNav1.3
  IC50: 2.19 µM

## CC[C@H](C)[C@@H]1NC(=O)[C@@H]2CSSC[C@@H]3NC(=O)[C@H](C(C)C)NC(=O)[C@H](CC(C)C)NC(=O)[C@H](CC(N)=O)NC(=O)[C@@H]4CCCN4C(=O)[C@H](CCCNC(=N)N)NC(=O)[C@H](CSSC[C@H](NC(=O)[C@@H](N)CC(=O)O)C(=O)N[C@@H](CC(C)C)C(=O)NCC(=O)N[C@@H](Cc4ccc(O)cc4)C(=O)N[C@@H](CCSC)C(=O)N[C@@H](CCCNC(=N)N)C(=O)N[C@@H](CCCCN)C(=O)N2)NC(=O)[C@H](CSSC[C@@H](C(=O)N[C@@H](CCCCN)C(=O)N[C@@H](Cc2ccc(O)cc2)C(=O)N[C@H](C(=O)N[C@@H](Cc2ccccc2)C(N)=O)C(C)C)NC(=O)[C@H](Cc2c[nH]c4ccccc24)NC(=O)[C@H](CCCCN)NC(=O)[C@H](Cc2c[nH]cn2)NC(=O)[C@H]([C@@H](C)O)NC(=O)[C@H](CCCNC(=N)N)NC(=O)[C@H](CO)NC3=O)NC(=O)[C@H](CCCCN)NC(=O)[C@H](CC(=O)O)NC(=O)[C@H](CC(N)=O)NC(=O)[C@H](CC(=O)O)NC(=O)[C@@H]2CCCN2C1=O [SEQ ID NO: 271] (H-DCLGYMRKCIPDNDKCCRPNLVCSRTHKWCKYVF-NH2; disulfide 2-17, 9-23, 16-30)
hNav1.7
  IC50: 1.43 µM
hNav1.5
  IC50: 15.6 µM
hNav1.3
  IC50: 1.64 µM

## CC[C@H](C)[C@@H]1NC(=O)[C@@H]2CSSC[C@@H]3NC(=O)[C@H](C(C)C)NC(=O)[C@H](CC(C)C)NC(=O)[C@H](CC(N)=O)NC(=O)[C@@H]4CCCN4C(=O)[C@H](CCCNC(=N)N)NC(=O)[C@H](CSSC[C@H](NC(=O)[C@@H](N)CC(=O)O)C(=O)N[C@@H](CC(C)C)C(=O)NCC(=O)N(C)[C@@H](Cc4c[nH]c5ccccc45)C(=O)N[C@@H](CCSC)C(=O)N[C@@H](CCCNC(=N)N)C(=O)N[C@@H](CCCCN)C(=O)N2)NC(=O)[C@H](CSSC[C@@H](C(=O)N[C@@H](CCCCN)C(=O)N[C@@H](Cc2ccc(O)cc2)C(=O)N[C@H](C(=O)N[C@@H](Cc2ccccc2)C(N)=O)C(C)C)NC(=O)[C@H](Cc2c[nH]c4ccccc24)NC(=O)[C@H](CCCCN)NC(=O)[C@H](Cc2c[nH]cn2)NC(=O)[C@H]([C@@H](C)O)NC(=O)[C@H](CCCNC(=N)N)NC(=O)[C@H](CO)NC3=O)NC(=O)[C@H](CCCCN)NC(=O)[C@H](CC(=O)O)NC(=O)[C@H](CC(N)=O)NC(=O)[C@H](CC(=O)O)NC(=O)[C@@H]2CCCN2C1=O [SEQ ID NO: 274]
hNav1.7
  IC50: 0.19 µM
hNav1.5
  IC50: > 5 µM
hNav1.3
  IC50: 0.15 µM

## CC[C@H](C)[C@@H]1NC(=O)[C@@H]2CSSC[C@@H]3NC(=O)[C@H](C(C)C)NC(=O)[C@H](CC(C)C)NC(=O)[C@H](CC(N)=O)NC(=O)[C@@H]4CCCN4C(=O)[C@H](CCCNC(=N)N)NC(=O)[C@H](CSSC[C@H](NC(=O)[C@@H](N)CC(=O)O)C(=O)N[C@@H](CC(C)C)C(=O)NCC(=O)N[C@@H](c4ccccc4)C(=O)N[C@@H](CCSC)C(=O)N[C@@H](CCCNC(=N)N)C(=O)N[C@@H](CCCCN)C(=O)N2)NC(=O)[C@H](CSSC[C@@H](C(=O)N[C@@H](CCCCN)C(=O)N[C@@H](Cc2ccc(O)cc2)C(=O)N[C@H](C(=O)N[C@@H](Cc2ccccc2)C(N)=O)C(C)C)NC(=O)[C@H](Cc2c[nH]c4ccccc24)NC(=O)[C@H](CCCCN)NC(=O)[C@H](Cc2c[nH]cn2)NC(=O)[C@H]([C@@H](C)O)NC(=O)[C@H](CCCNC(=N)N)NC(=O)[C@H](CO)NC3=O)NC(=O)[C@H](CCCCN)NC(=O)[C@H](CC(=O)O)NC(=O)[C@H](CC(N)=O)NC(=O)[C@H](CC(=O)O)NC(=O)[C@@H]2CCCN2C1=O [SEQ ID NO: 275]
hNav1.7
  IC50: 0.09 µM
hNav1.5
  IC50: > 5 µM
hNav1.3
  IC50: 0.17 µM
